This test has as its target SARS-CoV-2 3CLpro enzyme (Severe acute respiratory syndrome coronavirus 2, UniProt P0DTD1). The experiment in a line: biochemical. The settings on record: for percent enzymatic activity, individual values / percent enzymatic activity, AVG / inhibition at 50 µM: 50 µM drug; for percent enzymatic activity, individual values / percent enzymatic activity, AVG: DMSO treated control = 100%, data of Figs. 2-4; for percent enzymatic activity, AVG: mean of 3 values; for IC50: drugs 0 to 100 µM, 50 µM substrate, non-linear four variable fit, read-out: IC50 for SARS-CoV-2 3CL protease; for inhibitory effect towards 3CLpro enzymatic activity (in words): in vitro enzymatic assay at the tested doses; for inhibition at 50 µM / inhibition at 100 µM: read-out: inhibition of 3CLpro enzymatic activity; for inhibition at 100 µM: 100 µM drug.

Setting [1] is: dose-dependent study, 0.097656 uM, individual values.
The mark [2] stands for this setting: dose-dependent study, 0.097656 uM, individual values, read-out: % activity.
Where [3] appears, read: dose-dependent study, 0.195313 uM, individual values.
[4] abbreviates: dose-dependent study, 0.390625 uM, individual values.
The mark [5] stands for this setting: dose-dependent study, 0.390625 uM, individual values, read-out: % activity.
The mark [6] stands for this setting: dose-dependent study, 0.78125 uM, individual values.
The mark [7] stands for this setting: dose-dependent study, 0.78125 uM, individual values, read-out: % activity.
Setting [8] is: dose-dependent study, 1.5625 uM, individual values.
The mark [9] stands for this setting: dose-dependent study, 3.125 uM, individual values.
Where [10] appears, read: dose-dependent study, 6.25 uM, individual values.
Where [11] appears, read: dose-dependent study, 12.5 uM, individual values.
Where [12] appears, read: dose-dependent study, 12.5 uM, individual values, read-out: % activity.
Setting [13] is: dose-dependent study, 25 uM, individual values.
The mark [14] stands for this setting: dose-dependent study, 50 uM, individual values.
Where [15] appears, read: dose-dependent study, 100 uM, individual values.

Usually IC50 stands for the concentration that inhibits the measured activity by half. In general, inhibition refers to the percentage by which the read-out fell short of the control.

Values joined by “and” are separate entries in the source; they are usually repeats but may differ in a detail not shown here. Identical values can stand only once.

For the compound `Cc1cc(C#N)cc(C)c1Oc1nc(Nc2ccc(C#N)cc2)nc(N)c1Br` [Etravirine], the “percent enzymatic activity, individual values” was 85.8927% and 97.6243% and 93.0155%; the “percent enzymatic activity, AVG” value is reported as 92.1775%.

Regarding `CCN(CCO)CCCC(C)Nc1ccnc2cc(Cl)ccc12` (stereo not drawn) [Hydroxychloroquine], the “percent enzymatic activity, AVG” value is listed as 87.663%. For the same compound, for the setting “listed as Hydrochloroquine”, the “percent enzymatic activity, individual values” was 83.3868% and 88.8143% and 90.788%.

Take `CCC(C)n1ncn(-c2ccc(N3CCN(c4ccc(OCC5COC(Cn6cncn6)(c6ccc(Cl)cc6Cl)O5)cc4)CC3)cc2)c1=O` (stereo not drawn) [Itraconazole]: the “percent enzymatic activity, individual values” was 81.4131% and 90.2946% and 93.255%; the “percent enzymatic activity, AVG” value is 88.3209%.

For `CCC[C@H](NC(=O)[C@@H]1[C@H]2CCC[C@H]2CN1C(=O)[C@@H](NC(=O)[C@@H](NC(=O)c1cnccn1)C1CCCCC1)C(C)(C)C)C(=O)C(=O)NC1CC1` [Telaprevir], the “percent enzymatic activity, individual values” was 64.9635% and 42.7007% and 84.6715%; the “percent enzymatic activity, AVG” value was found to be 64.1119%.

On to `CC(C)(C)NC(=O)[C@@H]1C[C@@H]2CCCC[C@@H]2CN1C[C@@H](O)[C@H](Cc1ccccc1)NC(=O)[C@H](CC(N)=O)NC(=O)c1ccc2ccccc2n1` [Saquinavir], for which the “percent enzymatic activity, individual values” was 65.8986% and 67.2811% and 76.0369%; the “percent enzymatic activity, AVG” value came out at 69.7389%.

Consider `CCC[C@@]1(CCc2ccccc2)CC(O)=C([C@H](CC)c2cccc(NS(=O)(=O)c3ccc(C(F)(F)F)cn3)c2)C(=O)O1` [Tipranavir], for which the “percent enzymatic activity, individual values” is 30.4148% and 38.7097% and 37.3272%; the “percent enzymatic activity, AVG” value amounted to 35.4839%; the IC50 was found to be 27.7 µM; the “inhibitory effect towards 3CLpro enzymatic activity (in words)” value is listed as “partial inhibitory effect”. Further, the inhibition at 50 µM stood at 64% and the inhibition at 100 µM stood at 50%. The “% activity” value under setting [1] was 82.4284% (2×) and 99.6504%. Further, the activity at 0.097656 µM under setting [2] came out at 101%. Further, the “% activity” value under setting [3] is 93.9114% and 73.379% and 92.2647% and 99.6504%. The “% activity” value under setting [4] is 86.3629% and 90.6909% and 88.1724%. Moreover, under setting [5], the activity at 0.390625 µM worked out at 104%. The “% activity” value under setting [6] is 90.2974% and 88.7236% and 98.607%. Moreover, the activity at 0.78125 µM under setting [7] was found to be 109%. In addition, the “% activity” value under setting [8] is 116.346% and 88.7236% and 94.6254%. In addition, the “% activity” value under setting [9] was 93.8385% and 93.4451% and 104.346%. For the setting “dose-dependent study, 3.125 uM, individual values, read-out: % activity”, the activity at 3.125 µM came out at 110%. The “% activity” value under setting [10] was 117.389% and 86.7564% and 86.3629%. Further, the “% activity” value under setting [11] was 89.5105% and 88.3302% and 98.0853%. Also, the activity at 12.5 µM under setting [12] came out at 107%. In addition, under setting [13], the “% activity” value was 75.6509% and 84.3957% and 93.4451% and 63.6511%. Further, under setting [14], the “% activity” value was 69.8379% and 61.9688% and 53.2165%; the activity at 50 µM amounted to 57.4%. For the same compound, the “% activity” value under setting [15] is 47.9992% and 60.395% and 69.8379% and 42.7819%.

As for `Nc1nc(NC2CC2)c2ncn([C@H]3C=C[C@@H](CO)C3)c2n1` [Abacavir], the “percent enzymatic activity, individual values” was 85.8927% and 88.8256% and 90.5015% (2×); the “percent enzymatic activity, AVG” value turned out to be 88.4066%.

Consider `COc1cc2c(cc1Cc1cccc(Cl)c1F)c(=O)c(C(=O)O)cn2[C@H](CO)C(C)C` [Elvitegravir], for which the “percent enzymatic activity, individual values” is 78.3509% and 80.4458% and 91.3395%; the “percent enzymatic activity, AVG” value turned out to be 83.3787%.

In the case of `NC[C@H]1O[C@H](O[C@H]2[C@H](O[C@@H]3O[C@H](CO)[C@@H](O)[C@H]3O)[C@@H](O)[C@H](N)C[C@@H]2N)[C@H](N)[C@@H](O)[C@@H]1O` [Ribostamycin], the “percent enzymatic activity, individual values” was 96.7864% and 99.3003%; the “percent enzymatic activity, AVG” value is given as 98.4623%.

`CC(C)OC(=O)[C@H](C)N[P@](=O)(OC[C@H]1O[C@@H](n2ccc(=O)[nH]c2=O)[C@](C)(F)[C@@H]1O)Oc1ccccc1` [Sofosbuvir]: the “percent enzymatic activity, individual values” is 76.4977% and 78.341% and 81.5668%; the “percent enzymatic activity, AVG” value was 78.8018%.

Regarding `Cc1cnc(C(=O)N[C@H]2CCCCC/C=C\[C@@H]3C[C@@]3(C(=O)NS(=O)(=O)C3CC3)NC(=O)[C@@H]3C[C@@H](Oc4nc5ccccc5c5ccccc45)CN3C2=O)cn1` [Paritaprevir], the “percent enzymatic activity, individual values” was 25.5475% and 31.3869% and 37.2263%; the “percent enzymatic activity, AVG” value is reported as 31.3869%; the IC50 was found to be 73.4 µM; the “inhibitory effect towards 3CLpro enzymatic activity (in words)” value is “partial inhibitory effect”. For the same compound, the inhibition at 50 µM turned out to be 70% and the inhibition at 100 µM is about 80%. Also, the “% activity” value under setting [1] was 101.809% and 115.049%. For the same compound, the activity at 0.097656 µM under setting [2] was 101%. For the same compound, the “% activity” value under setting [3] was 132.87% and 115.668%. Besides, the “% activity” value under setting [4] was 114.628% and 102.678%. Moreover, under setting [5], the activity at 0.390625 µM was found to be 113%. For the same compound, the “% activity” value under setting [6] was 108.219% and 103.297%. For the same compound, the activity at 0.78125 µM under setting [7] amounted to 108%. In addition, the “% activity” value under setting [8] worked out at 121.853%. Also, under “dose-dependent study, 1.5625 uM, individual values, read-out: % activity”, the activity at 1.5625 µM is 114%. Also, the “% activity” value under setting [9] is 108.712% and 136.698%. For the same compound, the “% activity” value under setting [10] is 112.163% and 121.853%. Besides, under “dose-dependent study, 6.25 uM, individual values, read-out: % activity”, the activity at 6.25 µM was found to be 112%. Besides, the “% activity” value under setting [11] was 103.781% and 112.575%. In addition, the activity at 12.5 µM under setting [12] worked out at 102%. In addition, under setting [13], the “% activity” value is 89.4838% and 96.4929%; the activity at 25 µM is 91%. Under setting [14], the “% activity” value was 58.9163% and 64.3286%; the activity at 50 µM was determined as 61.4%. Besides, the “% activity” value under setting [15] is 16.5163% and 15.0372% and 1.856%.

For the compound `CC(C)c1nc(CN(C)C(=O)N[C@H](C(=O)N[C@@H](Cc2ccccc2)C[C@H](O)[C@H](Cc2ccccc2)NC(=O)OCc2cncs2)C(C)C)cs1` [Ritonavir], the “percent enzymatic activity, individual values” was 82.0276% and 87.5576% and 91.2442%; the “percent enzymatic activity, AVG” value worked out at 86.9432%; the “inhibitory effect towards 3CLpro enzymatic activity (in words)” value is “did not exhibit any 3CLpro inhibitory activity”.

In the case of `CCN(CC)CCCC(C)Nc1ccnc2cc(Cl)ccc12` (stereo not drawn) [Chloroquine], the “percent enzymatic activity, AVG” value amounted to 100.272%. The “percent enzymatic activity, individual values” (listed as Chloroquine Phosphate) is 103.986% and 93.4637% and 103.367%.

As for `CCOC(=O)c1c(CSc2ccccc2)n(C)c2cc(Br)c(O)c(CN(C)C)c12` [Umifenovir], the “percent enzymatic activity, individual values” was 80.6569% and 86.8613% and 87.2263%; the “percent enzymatic activity, AVG” value stood at 84.9148%.

As to `CC(C)CN(C[C@@H](O)[C@H](Cc1ccccc1)NC(=O)O[C@H]1CO[C@H]2OCC[C@H]21)S(=O)(=O)c1ccc(N)cc1` [Darunavir], the “percent enzymatic activity, individual values” was 90.3226% and 93.0876% and 98.6175%; the “percent enzymatic activity, AVG” value is on record as 94.0092%.

For the compound `CO[C@@H]1[C@H](OC(=O)/C=C/C=C/C=C/C=C/C(=O)O)CC[C@]2(CO2)[C@H]1[C@@]1(C)O[C@@H]1CC=C(C)C` [Fumagillin], the “percent enzymatic activity, individual values” is 70.8091% and 76.2559% and 71.647%; the “percent enzymatic activity, AVG” value was determined as 72.904%.

On to `Cc1c(O)cccc1C(=O)N[C@@H](CSc1ccccc1)[C@H](O)CN1C[C@H]2CCCC[C@H]2C[C@H]1C(=O)NC(C)(C)C` [Nelfinavir], for which the “percent enzymatic activity, AVG” value came out at 70.5069%. In addition, the “percent enzymatic activity, individual values” (listed as Nilfinavir) was 69.1244% and 72.3502% and 70.0461%.

With `CC(C)c1c(C(=O)Nc2ccccc2)c(-c2ccccc2)c(-c2ccc(F)cc2)n1CC[C@@H](O)C[C@@H](O)CC(=O)O` [Atrovastatin], the “percent enzymatic activity, individual values” is 92.1569% and 107.843% and 99.0196%; the “percent enzymatic activity, AVG” value is given as 99.6732%.

The record behind these values is publication PMC7817688, “Identification of 3-chymotrypsin like protease (3CLPro) inhibitors as potential anti-SARS-CoV-2 agents” (Communications Biology, 2021).
